Two molecules from patent US9593149B2, “Amylin and calcitonin receptor agonist” (Novo Nordisk A/S, priority 2014, dated 2017) can be followed below.

Peptide text beside a SMILES is read from it. * marks the point of attachment. C18 diacid = O=C(O)CCCCCCCCCCCCCCCCC(=O)* A value given as a limit tells only on which side of the number the result lay.

A short description of data set [1]: Assay (IV) determination of solubility. In kind it is physicochemical. The procedure:
Assay (IV)—Determination of Solubility
The mimylin peptide was dissolved in water at ˜500 nmol/ml and mixed 1:1 with a series of buffers (100 mM glycylglycine pH 3.0, 100 mM glycylglycine pH 4.0, 100 mM glycylglycine pH 5.0, 100 mM bistrispropane pH 6.0, 100 mM bistrispropane pH 6.5, 100 mM bistrispropane pH 7.0, 100 mM bistrispropane pH 7.5, 100 mM bistrispropane pH 8.0).

For data set [2], the target named is T1, human amylin 3(a) receptor (human calcitonin receptor + RAMP-3), BHK570 cells (Homo sapiens, UniProt O60896+P30988).
T1 construct: host or cells: BHK570
The data set can be described thus: Assay (II)b functional CRE-luciferase assay without albumin, human amylin receptor. In kind it is cell-based. To be noted: Tested without HSA; read-out: hAmylin-R funct. EC50. The text has this: (§1) Assay(II)b—Human Calcitonin and Amylin Receptor Assay without Albumin
(§2) 1. Luciferase Assay Outline
(§3) Activation of calcitonin and amylin (co-expression of calcitonin receptor and receptor activity modifying proteins (RAMP)) receptors lead to increased intracellular concentrations of cAMP. Consequently, transcription is activated by promoters containing multiple copies of the cAMP response element (CRE). It is thus possible to measure amylin activity by the use of a CRE luciferase reporter gene introduced into BHK cells also expressing calcitonin or amylin receptors.
(§4) 2. Construction of Calcitonin (a)—and Amylin 3(a)—Receptor/CRE-Luc Cell Line.
(§5) A BHK570 cell line was stably transfected with the human calcitonin receptor and a CRE-responsive luciferase reporter gene (Hollex-1 cell line, obtained from ZymoGenetics described in U.S. Pat. No. 5,622,839). The cell line was further transfected with RAMP-3, using standard methods. This turns the calcitonin receptor into an amylin 3(a) receptor. Methotrexate, Neomycin, and Hygromycin are selection markers for luciferase, the calcitonin receptor, and RAMP-3, respectively. To prepare the batches of frozen cells used in the luciferase assay described in the section below, the cells were cultured in growth medium (DMEM with 10% FBS, 1% Pen/Strep and 1 mM Napyruvate). […] Cells at approximately 80-90% confluence were washed with PBS and loosened from the plates with Versene. After centrifugation (2 min, 1300 rpm, in a Centrion Scientific centriuge C2 series with a BRK 5510 rotor head), the cell pellet was dissolved in 10% DMSO, 30% FBS and 60% growth medium and frozen (−80° C.) until utilization.
(§6) The day before the experiment, BHK calcitonin (a) receptor- or amylin 3(a)-receptor/CRE-luc cells were thawed, washed twice, and seeded in 40 μl growth medium on white 384 well culture plates (4.000 cells/well). On the assay day, the cells were washed 3 times in assay media (Dulbecco media W/o phenol red, 500 ml (Gibco, 11880-028); 0.1% ovalbumin; 10 mM Hepes pH 7.4; 1× Glutamin; 1% Pen/Strep). Then, 30 μl/well of sample diluted in assay buffer was added. After 3 hours of incubation at 37° C. and 5% CO2, the reaction was terminated by adding 30 μl/well SteadyLite Plus™. The plates were shaken at 300 rpm for 5 min at RT. Then, the plates were sealed and incubated at room temperature for 30 minutes. Finally, luminescence was tested on a TopCounter (Packard) in SPC (single photon counting) mode.
(§7) Additional Comment Regarding Use of Data Retrieved Via this Method
(§8) For the same reasons, measurements made in Assay IIa should not be compared in Assay IIb.

Data set [3] concerns the target T2, human calcitonin (a) receptor, BHK570 cells (Homo sapiens, UniProt P30988).
T2 construct: host or cells: BHK570
T2 sequence (P30988 25-474): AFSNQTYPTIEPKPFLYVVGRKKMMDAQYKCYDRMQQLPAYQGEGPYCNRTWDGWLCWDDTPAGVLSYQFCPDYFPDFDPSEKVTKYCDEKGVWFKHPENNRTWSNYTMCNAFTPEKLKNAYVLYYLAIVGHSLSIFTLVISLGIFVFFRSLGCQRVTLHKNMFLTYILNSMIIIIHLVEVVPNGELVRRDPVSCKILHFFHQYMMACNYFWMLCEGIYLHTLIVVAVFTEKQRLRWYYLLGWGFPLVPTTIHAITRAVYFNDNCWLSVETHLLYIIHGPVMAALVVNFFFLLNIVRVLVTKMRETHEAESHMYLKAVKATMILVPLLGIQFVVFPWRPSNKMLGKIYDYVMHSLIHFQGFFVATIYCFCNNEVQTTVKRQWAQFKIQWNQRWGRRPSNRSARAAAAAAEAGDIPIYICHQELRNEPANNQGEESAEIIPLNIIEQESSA
The data set can be described thus: Assay (II)b functional CRE-luciferase assay without albumin, human calcitonin receptor. In kind it is cell-based. To be noted: Tested without HSA; read-out: hCTR funct. EC50.
From the text: as §1, §2, §3, §4, §5, §6, §7, §8

The target of data set [4] is T3, human amylin receptor (human calcitonin receptor + human RAMP3), BHK tk'ts 13 cells (Homo sapiens, UniProt O60896+P30988).
T3 construct: expressed in transfected cells; host or cells: BHK tk'ts 13
The data set can be described thus: Assay (Va) binding to the human amylin receptor (whole cell). Particulars: read-out: hAmylin-R binding IC50. The procedure: The day before the assay the cells were Seeded into Poly-D-Lysin coated 384W Opaque White, BD BioCoat plates (10000 cells/well) and Incubated overnight at 37° C., 5% CO2, 95% humidity.

A short description of data set [5]: Assay (XV) subcutaneous PK in LYD-pigs, co-formulated or co-dosed with liraglutide. In kind it is in vivo. To be noted: administered as co-formulations to LYD pigs. The procedure:
The studies were performed in female LYD pigs of SPF origin delivered from Lars Jonson, Hillerødvej 70, Lynge.
Before the animals arrived, the animal rooms and pens were cleaned and disinfected with Virkon S. During the study, the animal rooms were cleaned and washed regularly.
The pigs were group housed during the acclimatisation period. The pigs were fitted with a central venous catheter while under anaesthesia and after the single housed after catheterization in pens ≧3.1 m^2 with straw as bedding. The temperature in the rooms was set at 20−23° C. and the relative humidity to 30-70%. The rooms were illuminated to give a cycle of 12 hours light and 12 hours darkness. Light was on from 07.00 to 19.00 h.
The formulations was prepared similarly and filled in cartridges in all cases.
The animals were dosed subcutaneously as follows.
The s.c. dosing was performed in 4 mm depth, in a site of injection which was secured on beforehand by ultrasound to avoid muscular tissue or heavy vascularization. Dosing was made using NovoPen®4 and needle Novofine 28 G and a needle stopper to ensure 4 mm depth of injection. The needle was kept in the subcutis for 10 seconds after the injection to secure deposition of compound. […] The co-formulation was administered as one injection. Study was performed as a cross over study with adequate wash out between dosings.
Blood was sampled at predefined time points for up till 15 days post dosing to adequately cover the full plasma concentration-time profile of the mimylin derivative. Blood samples were drawn from a central venous catheter to jugularis made through the catheter which was afterwards flushed with 10 ml 0.9% NaCl.
For each blood sampling time point approximately 0.8 mL of whole blood was collected in a 1.5 mL EDTA coated tube, and the tube was gently turned to allowing mixing of the sample with the anticoagulant. Blood samples (for example 0.8 mL) were collected in EDTA buffer (8 mM) and then centrifuged at 4° C. and 2000 G for 10 minutes. Plasma was pipetted into Micronic tubes on dry ice, and kept at −20° C. until analysis.
Individual plasma concentration-time profiles were analysed by a non-compartmental model in Phoenix WinNonlin version 6.3 (Pharsight Inc., Mountain View, Calif., USA).
The area under the plasma concentration versus time curve (AUC, [time×concentration]) was calculated (by the Pharsight programme) after subcutaneous administration, typically until 240-288 hours post dosing, or until last measured concentration. The AUC was calculated and given as AUCinf-pred and dose normalized.
Results of co-formulation studies in LYD-pigs are summarized below

T3 sequence (O60896 24-148, one chain of several): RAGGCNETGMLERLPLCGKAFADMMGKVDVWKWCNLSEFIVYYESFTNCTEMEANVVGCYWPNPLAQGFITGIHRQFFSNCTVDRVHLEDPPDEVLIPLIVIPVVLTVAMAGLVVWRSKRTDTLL
T1 sequence (O60896 24-148, one chain of several): as above

`CC[C@H](C)[C@H](NC(=O)[C@@H](NC(=O)[C@H](C)NC(=O)[C@@H](NC(=O)[C@H](CO)NC(=O)[C@H](CC(C)C)NC(=O)[C@H](CCC(=O)O)NC(=O)[C@H](CO)NC(=O)[C@H](C)NC(=O)[C@H](CCC(=O)O)NC(=O)CCCCCCCCCCCCCCCCC(=O)O)[C@@H](C)O)C(C)C)C(=O)NCC(=O)N[C@@H](CCCNC(=N)N)C(=O)N[C@@H](CC(C)C)C(=O)N[C@@H](CO)C(=O)N[C@@H](C)C(=O)N[C@@H](CCC(=O)O)C(=O)N[C@@H](CC(C)C)C(=O)N[C@@H](Cc1c[nH]cn1)C(=O)N[C@@H](CCC(=O)O)C(=O)N[C@@H](CC(C)C)C(=O)N[C@@H](C)C(=O)N[C@H](C(=O)N[C@@H](CC(C)C)C(=O)N1CCC[C@H]1C(=O)N[C@@H](CCCNC(=N)N)C(=O)N[C@H](C(=O)N[C@@H](CCC(=O)O)C(=O)N[C@H](C(=O)NCC(=O)N1CCC[C@H]1C(=O)N[C@@H](CCC(=O)O)C(=O)N[C@@H](CO)C(=O)N1CCC[C@H]1C(N)=O)[C@@H](C)O)[C@@H](C)O)[C@@H](C)O` [compound 26, [N-terminal(C18 diacid), 9V, 10I]mimylin] ({C18 diacid}-EASELSTAVIGRLSAELHELATLPRTETGPESP-NH2): the solubility at 18 h in data set [1] (bistrispropane buffer, pH 6.5) was at least 200 µM; in data set [1] (bistrispropane buffer, pH 7.5), at least 200 µM; in data set [1] (bistrispropane buffer, pH 6.0), at least 200 µM; in data set [1] (bistrispropane buffer, pH 7.0) it was at least 200 µM; in data set [1] (bistrispropane buffer, pH 8.0) it was at least 200 µM; in data set [1] (glycylglycine buffer, pH 3.0), at least 200 µM. The solubility at 18 h in data set [1] (glycylglycine buffer, pH 4.0) was at least 200 µM; in data set [1] (glycylglycine buffer, pH 5.0) it was at least 200 µM. In addition, the EC50 in data set [2] is 7 pM; in data set [3], 6 pM. Besides, in data set [4], the half-inhibitory concentration (IC50) was 0.891 nM.
Regarding `CCCCCCCCCCCCCCCC(=O)N[C@@H](CCC(=O)NCCCC[C@H](NC(=O)[C@H](C)NC(=O)[C@H](C)NC(=O)[C@H](CCC(N)=O)NC(=O)CNC(=O)[C@H](CCC(=O)O)NC(=O)[C@H](CC(C)C)NC(=O)[C@H](Cc1ccc(O)cc1)NC(=O)[C@H](CO)NC(=O)[C@H](CO)NC(=O)[C@@H](NC(=O)[C@H](CC(=O)O)NC(=O)[C@H](CO)NC(=O)[C@@H](NC(=O)[C@H](Cc1ccccc1)NC(=O)[C@@H](NC(=O)CNC(=O)[C@H](CCC(=O)O)NC(=O)[C@H](C)NC(=O)[C@@H](N)Cc1cnc[nH]1)[C@@H](C)O)[C@@H](C)O)C(C)C)C(=O)N[C@@H](CCC(=O)O)C(=O)N[C@@H](Cc1ccccc1)C(=O)N[C@H](C(=O)N[C@@H](C)C(=O)N[C@@H](Cc1c[nH]c2ccccc12)C(=O)N[C@@H](CC(C)C)C(=O)N[C@H](C(=O)N[C@@H](CCCNC(=N)N)C(=O)NCC(=O)N[C@@H](CCCNC(=N)N)C(=O)NCC(=O)O)C(C)C)[C@@H](C)CC)C(=O)O` [Liraglutide, N^ε26-[(4S)-4-carboxy-4-(hexadecanoylamino)butanoyl]-[Arg^34]-GLP-1-(7-37)-peptide, reference compound], the “effect on PK profile of the co-formulated peptide” value in data set [5] is recorded as “not affect the PK profile of Ex. compound 2 or 46”.

For orientation: solubility means the concentration that dissolves in the medium under given conditions. Lower therefore signals little dissolved substance. The EC50 is the concentration giving half of the maximal effect. As a reminder, the IC50 is the concentration that gives 50% inhibition.
